Two molecules from ChEMBL document CHEMBL5390209, “Spinosyn A and Its Derivative Inhibit Colorectal Cancer Cell Growth via the EGFR Pathway” (J Nat Prod, 2023) can be followed below.

Data set [1] can be described thus: Toxicity in human HT-29 cells xenografted Balb/c mouse assessed as change in liver pathology at 5 mg/kg/day, ip administrated for every other day and measured after 28 days. It counts as organism-based. The conditions noted are these: in vivo, 672 h, time 28 day.
Data set [2] deals with HCT-116. Put plainly: Inhibition of colony formation in human HCT-116 cells at 6 uM incubated for 14 days by crystal violet staining based colony formation assay. It counts as functional, cell-based. The conditions noted are these: time 14.0 day.
Data set [3] can be described thus: Toxicity in human HT-29 cells xenografted Balb/c mouse assessed as change in spleen pathology at 5 mg/kg/day, ip administrated for every other day and measured after 28 days. The format is organism-based. The note with it: in vivo, 672 h, time 28 day. In general terms: Xenograft models place foreign cells or tissue in a host animal.
Data set [4] concerns the target Epidermal growth factor receptor (Homo sapiens) (UniProt P00533). Put plainly: Inhibition of EGFR in human SW480 cells assessed as reduction in STAT3 phosphorylation level at 3.75 to 15 uM incubated for 24 hrs by Western blot analysis. The format is cell-based. The note with it: dose 3.75-15 µM. (In general: Immunoblotting shows a protein as a band on a membrane.)

Data set [5] deals with HT-29. The data set can be described thus: Inhibition of EGFR in human HT-29 cells xenografted in BALB/c nude mouse assessed as EGFR protein level in tumor at 5 mg/kg/day, ip administrated for every other day and measured after 28 days by Western blotting analysis. The format is functional, organism-based. The note with it: time 28.0 day.
Data set [6] concerns SW480. The data set can be described thus: Inhibition of colony formation in human SW480 cells at 6 uM incubated for 14 days by crystal violet staining based colony formation assay. The format is functional, cell-based. The note with it: time 14.0 day.
The target in data set [7] is Epidermal growth factor receptor (Homo sapiens) (UniProt P00533). The data set can be described thus: Inhibition of EGFR in human HT-29 cells assessed as reduction in STAT3 phosphorylation level at 15 uM by Western blot analysis. It counts as cell-based. The note with it: time 3-15 hrs, TDE = time-dependent effect.
The target is the same in data set [8]. Put plainly: Inhibition of EGFR in human SW480 cells assessed as reduction in Erk1/2 phosphorylation level at 3.75 to 15 uM incubated for 24 hrs by Western blot analysis. The format is cell-based. The conditions noted are these: dose 3.75-15 µM.
Data set [9] concerns HT-29. Put plainly: Inhibition of EGFR in human HT-29 cells xenografted in BALB/c nude mouse assessed as reduction in EGFR protein expression level in tumor at 5 mg/kg/day, ip administrated for every other day and measured after 28 days by immunohistochemistry staining based analysis. It counts as functional, organism-based. The conditions noted are these: time 28.0 day.
Data set [10] concerns the target Epidermal growth factor receptor (Homo sapiens) (UniProt P00533). The data set can be described thus: Inhibition of EGFR in human HT-29 cells assessed as reduction in Erk1/2 phosphorylation level at 3.75 to 15 uM incubated for 24 hrs by Western blotting analysis. The note with it: dose 3.75-15 µM. It counts as cell-based.
Data set [11] has as its system HT-29. Put plainly: Inhibition of HER2 in human HT-29 cells xenografted in BALB/c nude mouse assessed as HER2 protein level in tumor at 5 mg/kg/day, ip administrated for every other day and measured after 28 days by Western blotting analysis. It counts as functional, organism-based. The note with it: time 28.0 day.
Data set [12] has as its system LoVo. The data set can be described thus: Inhibition of colony formation in human LoVo cells at 6 uM incubated for 14 days by crystal violet staining based colony formation assay. The format is functional, cell-based. The conditions noted are these: time 14.0 day.
In data set [13] the test system is HT-29. Put plainly: Antitumor activity against human HT-29 cells xenografted Balb/c mouse assessed as reduction in tumor cell density at 5 mg/kg/day, ip administrated for every other day and measured after 28 days by Hematoxylin and Eosin staining based method. It counts as functional, organism-based. The conditions noted are these: time 28.0 day.
In data set [14] the test system is HT-29. Put plainly: Inhibition of colony formation in HER2 knockdown human HT-29 cells at 6 uM incubated for 14 days by crystal violet staining based colony formation assay. The note with it: time 14.0 day. It counts as functional, cell-based.
For data set [15], the system named is HT-29. The data set can be described thus: Antitumor activity against human HT-29 cells xenografted Balb/c mouse assessed as inhibited tumor growth at 5 mg/kg/day, ip administrated for every other day and measured after 6 days. The conditions noted are these: time 6.0 day. It counts as functional, organism-based.
For data set [16], the system named is DLD-1. Put plainly: Inhibition of colony formation in human DLD-1 cells at 6 uM incubated for 14 days by crystal violet staining based colony formation assay. The note with it: time 14.0 day. It counts as functional, cell-based.
Data set [17] addresses Epidermal growth factor receptor (Homo sapiens) (UniProt P00533). The data set can be described thus: Inhibition of EGFR in human SW480 cells assessed as reduction in Erk1/2 phosphorylation level at 0.5 to 2 uM incubated for 24 hrs by Western blotting analysis. It counts as cell-based. The conditions noted are these: dose 0.5-2 µM.
Data set [18] is described as follows: Toxicity in human HT-29 cells xenografted Balb/c mouse assessed as change in liver pathology at 2.5 mg/kg/day, ip administrated for every other day and measured after 28 days. The format is organism-based. The conditions noted are these: in vivo, 672 h, time 28 day.
The target in data set [19] is Epidermal growth factor receptor (Homo sapiens) (UniProt P00533). Put plainly: Inhibition of EGFR in human HT-29 cells assessed as reduction in Erk1/2 phosphorylation level at 2 uM by Western blotting analysis. It counts as cell-based. The conditions noted are these: time 3-15 hrs, TDE = time-dependent effect.
Data set [20] has the same target. The data set can be described thus: Inhibition of EGFR in human HT-29 cells assessed as reduction in MEK1/2 phosphorylation level at 2 uM by Western blotting analysis. It counts as cell-based. The note with it: time 3-15 hrs, TDE = time-dependent effect.
Data set [21] relates to HCT-116. Put plainly: Inhibition of colony formation in human HCT-116 cells at 0.75 uM incubated for 14 days by crystal violet staining based colony formation assay. It counts as functional, cell-based. The note with it: time 14.0 day.
Data set [22] relates to HT-29. The data set can be described thus: Antitumor activity against human HT-29 cells xenografted Balb/c mouse assessed as reduction in tumor growth at 2.5 mg/kg/day, ip administrated for every other day and measured after 28 days. The note with it: time 28.0 day. It counts as functional, organism-based.
The test system of data set [23] is LoVo. Put plainly: Inhibition of colony formation in human LoVo cells at 0.75 uM incubated for 14 days by crystal violet staining based colony formation assay. It counts as functional, cell-based. The note with it: time 14.0 day.
Data set [24] relates to HT-29. The data set can be described thus: Antitumor activity against human HT-29 cells xenografted Balb/c mouse assessed as reduction in tumor cell density at 2.5 mg/kg/day, ip administrated for every other day and measured after 28 days by Hematoxylin and Eosin staining based method. The format is functional, organism-based. The note with it: time 28.0 day.
Data set [25] can be described thus: Toxicity in human HT-29 cells xenografted Balb/c mouse assessed as change in kidney pathology at 2.5 mg/kg/day, ip administrated for every other day and measured after 28 days. The format is organism-based. The conditions noted are these: in vivo, 672 h, time 28 day.
The test system of data set [26] is HT-29. The data set can be described thus: Inhibition of HER2 in human HT-29 cells xenografted in BALB/c nude mouse assessed as reduction in HER2 protein expression level at 2.5 mg/kg/day, ip administrated for every other day and measured after 28 days by immunohistochemistry staining based analysis. It counts as functional, organism-based. The note with it: time 28.0 day.

Data set [27] has as its system HT-29. Put plainly: Inhibition of EGFR in human HT-29 cells xenografted in BALB/c nude mouse assessed as EGFR protein level in tumor at 2.5 mg/kg/day, ip administrated for every other day and measured after 28 days by Western blotting analysis. It counts as functional, organism-based. The conditions noted are these: time 28.0 day.
Data set [28] concerns HT-29. Put plainly: Inhibition of EGFR in human HT-29 cells xenografted in BALB/c nude mouse assessed as reduction in EGFR protein expression level at 2.5 mg/kg/day, ip administrated for every other day and measured after 28 days by immunohistochemistry staining based analysis. It counts as functional, organism-based. The conditions noted are these: time 28.0 day.
For data set [29], the system named is DLD-1. The data set can be described thus: Inhibition of colony formation in human DLD-1 cells at 0.75 uM incubated for 14 days by crystal violet staining based colony formation assay. The format is functional, cell-based. The conditions noted are these: time 14.0 day.
A short description of data set [30]: Toxicity in human HT-29 cells xenografted Balb/c mouse assessed as change in body weight at 2.5 mg/kg/day, ip administrated for every other day and measured after 6 days. The format is organism-based. The note with it: in vivo, 144 h, time 6 day.
Data set [31] has as its system SW480. Put plainly: Inhibition of colony formation in human SW480 cells at 0.75 uM incubated for 14 days by crystal violet staining based colony formation assay. The format is functional, cell-based. The note with it: time 14.0 day.
The target in data set [32] is Epidermal growth factor receptor (Homo sapiens) (UniProt P00533). The data set can be described thus: Inhibition of EGFR in human HT-29 cells at 2 uM by Western blot analysis. The format is cell-based. The conditions noted are these: time 3-15 hrs, TDE = time-dependent effect.
In data set [33] the test system is HT-29. Put plainly: Inhibition of HER2 in human HT-29 cells xenografted in BALB/c nude mouse assessed as HER2 protein level in tumor at 2.5 mg/kg/day, ip administrated for every other day and measured after 28 days by Western blotting analysis. It counts as functional, organism-based. The conditions noted are these: time 28.0 day.
In data set [34] the target is Epidermal growth factor receptor (Homo sapiens) (UniProt P00533). The data set can be described thus: Inhibition of EGFR in human SW480 cells assessed as reduction in MEK1/2 phosphorylation level at 0.5 to 2 uM incubated for 24 hrs by Western blotting analysis. The format is cell-based. The conditions noted are these: dose 0.5-2 µM.
Data set [35] has the same target. Put plainly: Inhibition of EGFR in human HT-29 cells assessed as reduction in Erk1/2 phosphorylation level at 0.5 to 2 uM incubated for 24 hrs by Western blotting analysis. The note with it: dose 0.5-2 µM. It counts as cell-based.

The source made the active and inactive calls. No cut-off for these calls is given here.

Chain of Epidermal growth factor receptor (Homo sapiens) (P00533 whole entry): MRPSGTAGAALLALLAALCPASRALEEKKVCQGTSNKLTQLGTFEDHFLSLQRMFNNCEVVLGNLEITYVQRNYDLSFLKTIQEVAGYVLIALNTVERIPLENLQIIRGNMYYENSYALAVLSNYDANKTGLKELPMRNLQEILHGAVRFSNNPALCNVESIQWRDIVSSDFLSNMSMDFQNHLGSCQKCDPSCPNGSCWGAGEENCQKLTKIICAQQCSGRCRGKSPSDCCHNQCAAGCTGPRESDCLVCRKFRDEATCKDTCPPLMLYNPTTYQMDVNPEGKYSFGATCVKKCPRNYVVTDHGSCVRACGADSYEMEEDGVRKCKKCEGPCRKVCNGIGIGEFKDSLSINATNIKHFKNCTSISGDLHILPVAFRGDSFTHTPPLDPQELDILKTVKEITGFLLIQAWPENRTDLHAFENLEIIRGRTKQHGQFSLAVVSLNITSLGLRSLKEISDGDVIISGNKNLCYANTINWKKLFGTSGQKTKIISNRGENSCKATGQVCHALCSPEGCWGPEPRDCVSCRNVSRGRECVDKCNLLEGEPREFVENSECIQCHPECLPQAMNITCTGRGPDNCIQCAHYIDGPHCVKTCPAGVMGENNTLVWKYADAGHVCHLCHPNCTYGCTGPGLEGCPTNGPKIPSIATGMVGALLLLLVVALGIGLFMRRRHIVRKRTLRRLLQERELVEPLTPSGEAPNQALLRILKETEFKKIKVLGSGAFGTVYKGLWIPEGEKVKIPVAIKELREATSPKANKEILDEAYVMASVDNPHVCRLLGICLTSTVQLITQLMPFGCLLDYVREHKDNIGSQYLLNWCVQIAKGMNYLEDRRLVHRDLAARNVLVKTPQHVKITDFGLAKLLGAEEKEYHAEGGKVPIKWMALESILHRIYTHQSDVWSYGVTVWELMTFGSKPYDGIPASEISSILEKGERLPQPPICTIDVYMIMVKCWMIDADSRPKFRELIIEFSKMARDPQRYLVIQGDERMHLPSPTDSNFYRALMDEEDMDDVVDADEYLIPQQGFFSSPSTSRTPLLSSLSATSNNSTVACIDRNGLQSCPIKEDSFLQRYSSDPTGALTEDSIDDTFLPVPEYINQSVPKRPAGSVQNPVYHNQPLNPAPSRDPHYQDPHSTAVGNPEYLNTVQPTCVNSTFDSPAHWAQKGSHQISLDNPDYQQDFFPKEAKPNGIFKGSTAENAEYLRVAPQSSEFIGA

For the molecule `CC[C@H]1CCC[C@H](O[C@H]2CC[C@H](N(C)C)[C@@H](C)O2)[C@@H](C)C(=O)C2=C[C@@H]3[C@@H](C=C[C@@H]4C[C@@H](O[C@@H]5O[C@@H](C)[C@H](OC)[C@@H](OC)[C@H]5OC)C[C@@H]34)[C@@H]2CC(=O)O1` [SPINOSYN A], the Activity result in data set [1] and in data set [3] was “Non-Toxic” throughout. Further, the inhibition result in data set [2], in data set [4], in data set [5], in data set [6], in data set [8] and in data set [9] was “Active” each time. The inhibition result in data set [10], in data set [11], in [12], in data set [15] and in [16] was “Active” each time. Moreover, in [7], the inhibition entry is “Tde”. Further, the result in data set [13] was Active. For the same molecule, the result in data set [14] was inactive.
On to `CC[C@H]1CCC[C@H](O[C@H]2CC[C@H](N(C)CC(O)CN3CCNCC3)[C@@H](C)O2)[C@@H](C)C(=O)C2=C[C@@H]3[C@@H](C=C[C@@H]4C[C@@H](O[C@@H]5O[C@@H](C)[C@H](OC)[C@@H](OC)[C@H]5OC)C[C@@H]34)[C@@H]2CC(=O)O1` (stereo not given in full), for which the inhibition entry in [17], in data set [21], in data set [23], in data set [26], in data set [27] and in [28] was “Active” in each case. For the same molecule, the inhibition entry in [29], in data set [31], in data set [33], in [34] and in data set [35] was “Active” throughout. The Activity entry in data set [18], in data set [25] and in data set [30] was “Non-Toxic” in each case. Besides, the inhibition entry in [19], in [20] and in [32] was “Tde” throughout. Further, the result in data set [22] and in data set [24] was Active.
